Measurements as given in publication PMC2905628 (Molecular cancer therapeutics, 2010).

Biological target: T1, protein kinase D2 (PKD2) (Homo sapiens, UniProt Q9BZL6)
T1 sequence (Q9BZL6 1-878): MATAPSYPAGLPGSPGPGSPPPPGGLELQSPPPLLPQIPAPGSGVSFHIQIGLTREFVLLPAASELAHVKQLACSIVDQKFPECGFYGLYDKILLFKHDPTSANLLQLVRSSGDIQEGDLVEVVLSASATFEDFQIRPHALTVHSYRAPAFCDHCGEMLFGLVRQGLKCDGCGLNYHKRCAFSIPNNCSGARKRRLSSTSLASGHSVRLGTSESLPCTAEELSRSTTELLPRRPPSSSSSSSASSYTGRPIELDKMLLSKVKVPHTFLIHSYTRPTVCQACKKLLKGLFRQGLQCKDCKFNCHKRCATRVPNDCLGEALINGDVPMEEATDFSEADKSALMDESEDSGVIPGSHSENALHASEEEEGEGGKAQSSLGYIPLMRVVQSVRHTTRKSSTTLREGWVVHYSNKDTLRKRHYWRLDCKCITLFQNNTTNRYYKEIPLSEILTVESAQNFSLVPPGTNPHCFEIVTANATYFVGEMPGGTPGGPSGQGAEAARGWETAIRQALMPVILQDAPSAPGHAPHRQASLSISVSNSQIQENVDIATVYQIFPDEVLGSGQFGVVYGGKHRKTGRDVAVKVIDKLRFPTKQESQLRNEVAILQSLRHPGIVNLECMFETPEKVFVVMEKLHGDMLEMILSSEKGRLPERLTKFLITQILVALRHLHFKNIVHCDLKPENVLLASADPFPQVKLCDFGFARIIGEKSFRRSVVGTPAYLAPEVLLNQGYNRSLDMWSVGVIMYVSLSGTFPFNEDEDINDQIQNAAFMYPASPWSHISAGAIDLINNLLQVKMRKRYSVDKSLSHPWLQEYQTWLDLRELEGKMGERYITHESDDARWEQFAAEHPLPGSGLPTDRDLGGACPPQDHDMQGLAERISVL
Assay: IMAP fluorescence polarization kinase assay, peptide substrate phosphorylation
Assay type: biochemical

Question: With `CC[C@@H](N)CNc1ccnc(-c2cc(-c3cnn(C)c3)ccc2O)n1` [CRT0066101] as the compound, how does the IC50 read?
Answer: 2.5 nM
